# Measured values reported in PubChem BioAssay (NCI).
# Several values for one entry are separate records, joined by “and”; a condition that tells them apart may be missing. Identical values can stand only once.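 Results reflect a 48-hour exposure of cells in 96-well plates to compound at five concentrations. At the GI50, growth is halved. TGI denotes the concentration required for complete inhibition of growth.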
# Tests used:
# Experiment in all cases: NCI anticancer screen, dose series, 48 h
# SNB-75 CNS = tested on: SNB-75 CNS
# MOLT-4 leukemia = tested on: MOLT-4 leukemia
# NCI-H23 lung = tested on: NCI-H23 lung
# RPMI-8226 leukemia = tested on: RPMI-8226 leukemia
# TK-10 renal = tested on: TK-10 renal
# EKVX NSCLC = tested on: EKVX NSCLC
# NCI-H226 lung = tested on: NCI-H226 lung
# MDA-MB-435 = tested on: MDA-MB-435
# OVCAR-8 ovarian = tested on: OVCAR-8 ovarian
# COLO 205 colon = tested on: COLO 205 colon
Compound,GI50 (SNB-75 CNS),TGI (SNB-75 CNS),GI50 (MOLT-4 leukemia),TGI (MOLT-4 leukemia),GI50 (NCI-H23 lung),TGI (NCI-H23 lung),GI50 (RPMI-8226 leukemia),TGI (RPMI-8226 leukemia),TGI (TK-10 renal),GI50 (EKVX NSCLC),TGI (EKVX NSCLC),GI50 (NCI-H226 lung),TGI (NCI-H226 lung),GI50 (MDA-MB-435),TGI (MDA-MB-435),GI50 (OVCAR-8 ovarian),TGI (OVCAR-8 ovarian),GI50 (COLO 205 colon),TGI (COLO 205 colon),GI50 (TK-10 renal)
COc1cc(OC)c(/C=C/S(=O)(=O)Cc2ccc(OC)c(NCC(=O)O)c2)c(OC)c1,0.0682 µM and 0.0492 µM,> 100 µM,0.408 µM and 0.466 µM,> 100 µM,0.263 µM and 0.136 µM,> 100 µM,0.16 µM and 0.331 µM,> 100 µM,> 100 µM,0.127 µM and 0.0834 µM,> 100 µM,> 2.44 µM and 0.39 µM,> 100 µM,0.0312 µM and 0.0283 µM,0.115 µM and 0.111 µM,0.273 µM and 0.104 µM,> 100 µM,0.238 µM and 0.274 µM,0.714 µM and 0.738 µM,–
COc1cc(C(=O)/C=C/c2c(C(F)(F)F)nc3sccn23)cc(OC)c1OC,1.87 µM,4.86 µM,1.92 µM,5.81 µM,1.72 µM,3.89 µM,1.08 µM,4.53 µM,5.12 µM,2.72 µM,10.7 µM,2.17 µM,5.54 µM,1.61 µM,4.35 µM,3.08 µM,22.6 µM,1.94 µM,3.44 µM,2.3 µM
CC(=O)Nc1ccc(-n2cnc3cc(-c4ccc(OCCN5CCCCC5)cc4)ccc32)cc1,4.11 µM,8.31 µM,5.71 µM,25 µM,5.07 µM,11.6 µM,5.16 µM,12.7 µM,15.9 µM,7.88 µM,28 µM,2.92 µM,8.43 µM,5.81 µM,10.4 µM,6.07 µM,14.8 µM,5.2 µM,10.7 µM,9.11 µM
CCCCCCN(CCCCCC)CC(O)c1cccc2ccc(Cl)cc12 (centres undefined),7.43 µM,20.6 µM,7.81 µM,26.1 µM,5.42 µM,19.5 µM,5.2 µM,22.4 µM,25.4 µM,10.5 µM,25.5 µM,4.89 µM,18.2 µM,10.2 µM,29.4 µM,15.7 µM,32.7 µM,3.82 µM,14.9 µM,12.4 µM
